For test [1], the target named is Brd4 bromodomain 1 (BRD4(1)) (Homo sapiens, UniProt O60885). The test is described as follows: Inhibition of tetra-acetylated histone H4 binding to Brd4 bromodomain 1, measured by FRET (HTRF). Also noted: made in house; host or cells: E. coli BL21(DE3). To be noted: 2 h at room temperature. On the procedure:
Proteins were cloned and overexpressed with a N-terminal 6×His tag, then purified by nickel affinity followed by size exclusion chromatography. Briefly, E. coli BL21(DE3) cells were transformed with a recombinant expression vector encoding N-terminally Nickel affinity tagged bromodomains from Brd2, Brd3, Brd4. Cell cultures were incubated at 37° C. with shaking to the appropriate density and induced overnight with IPTG. The supernatant of lysed cells was loaded onto Ni-IDA column for purification. Eluted protein was pooled, concentrated and further purified by size exclusion chromatography. Fractions representing monomeric protein were pooled, concentrated, aliquoted, and frozen at −80° C. for use in subsequent experiments.
Binding of tetra-acetylated histone H4 and BET bromodomains was confirmed by a Homogenous Time Resolved Fluorescence Resonance Energy Transfer (HTRF®) method. N-terminally His-tagged bromodomains (200 nM) and biotinylated tetra-acetylated histone H4 peptide (25-50 nM, Millipore) were incubated in the presence of Europium Cryptate-labeled streptavidin (Cisbio Cat. #610SAKLB) and XL665-labeled monoclonal anti-His antibody (Cisbio Cat. #61HISXLB) in a white 96 well microtiter plate (Greiner). For inhibition assays, serially diluted test compound was added to these reactions in a 0.2% final concentration of DMSO. Duplicate wells were used for each concentration tested. Final buffer concentrations were 30 mM HEPES pH 7.4, 30 mM NaCl, 0.3 mM CHAPS, 20 mM phosphate pH 7.0, 320 mM KF, 0.08% BSA. After a 2 h incubation at room temperature, fluorescence was measured at 665 and 620 nm with a SynergyH4 plate reader (Biotek). The binding inhibitory activity was shown by a decrease in 665 nm relative to 620 nm fluorescence. IC50 values were determined from a dose response curve.

In test [2] the test system is c-myc in Human AML MV4-11 cells. The test is described as follows: Inhibition of cMYC expression (mRNA, real-time PCR) in MV4-11 cells. The class given is cell-based. To be noted: 3 h treatment, cMYC mRNA by real-time PCR. On the procedure: MV4-11 cells (CRL-9591) were plated at a density of 2.5×10^4 cells per well in 96 well U-bottom plates and treated with increasing concentrations of test compound or DMSO (0.1%) in IMDM media containing 10% FBS and penicillin/streptomycin, and incubated for 3 h at 37′C. Triplicate wells were used for each concentration. Cells were pelleted by centrifugation and harvested using the mRNA Catcher PLUS kit according to manufacturer's instructions. The eluted mRNA isolated was then used in a one-step quantitative real-time PCR reaction, using components of the RNA UltraSense™ One-Step Kit (Life Technologies) together with Applied Biosystems TaqMan® primer-probes for cMYC and Cyclophilin. Real-time PCR plates were run on a ViiA™7 real time PCR machine (Applied Biosystems), data was analyzed, normalizing the Ct values for cMYC to an internal control, prior to determining the fold expression of each sample, relative to the control.
Background: Quantitative PCR measures a nucleic acid by following its amplification.

The subject of the next test is Human AML MV-4-11 cells. The test is described as follows: Inhibition of cell proliferation in MV4-11 cells (CellTiter Aqueous One). The class given is cell-based. To be noted: for IC50: MV4-11, 72 h; for Cell Proliferation activity: 72 h. How it is done:
MV4-11 cells (CRL-9591) were plated at a density of 5×10^4 cells per well in 96 well flat bottom plates and treated with increasing concentrations of test compound or DMSO (0.1%) in IMDM media containing 10% FBS and penicillin/streptomycin. Triplicate wells were used for each concentration and a well containing only media was used as a control. Plates were incubated at 37° C., 5% CO2 for 72 h before adding 20 µL of the CellTiter Aqueous One Solution (Promega) to each well and incubated at 37° C., 5% CO2 for an additional 3-4 h. The absorbance was read at 490 nm in a spectrophotometer and the percentage of cell titer relative to DMSO-treated cells was calculated after correcting for background by subtracting the blank well's signal. IC50 values were calculated using the GraphPad Prism software.

SMILES strings stand for the structures.

For `Cc1noc(C)c1-c1cc(-c2c(C)nn(C)c2C)c2nc(N3CCOCC3)[nH]c2c1` [Example Compound 184, 4-(6-(3,5-dimethyl-isoxazol-4-yl)-4-(1,3,5-trimethyl-1H-pyrazol-4-yl)-1H-benzo[d]imidazol-2-yl)morpholine], the IC50 (in test [1]; in test [2]; in the test with Human AML MV-4-11 cells) was ≤ 300 nM throughout.

Regarding `Cc1noc(C)c1-c1cc(Nc2ccc(Cl)cc2)c2nc[nH]c2c1` [Example Compound 40, N-(4-chlorophenyl)-6-(3,5-dimethyl-isoxazol-4-yl)-1H-benzo[d] imidazol-4-amine], the IC50 (usually the concentration needed to halve the response being measured) in test [1] is ≤ 300 nM; with Human AML MV-4-11 cells, 3000 to 30000 nM.

`CSc1nc2c(-c3c(C)nn(C)c3C)cc(-c3c(C)noc3C)cc2[nH]1` [Example Compound 187, 3,5-dimethyl-4-(2-(methylthio)-4-(1,3,5-trimethyl-1H-pyrazol-4-yl)-1H-benzo[d]imidazol-6-yl)isoxazole]: the IC50 (in test [1]; in test [2]; in the test with Human AML MV-4-11 cells) was ≤ 300 nM throughout.

As for `Cc1ccc(C#N)cc1-c1cc(-c2c(C)noc2C)cc2[nH]c(NC3CCOCC3)nc12` [Example Compound 198, 3-(6-(3,5-dimethyl-isoxazol-4-yl)-2-((tetrahydro-2H-pyran-4-yl)amino)-1H-benzo[d]imidazol-4-yl)-4-methyl benzonitrile], the IC50 (in test [1]; in test [2]; in the test with Human AML MV-4-11 cells) was ≤ 300 nM in each case.

In the case of `Cc1noc(C)c1-c1cc(-c2c(C)noc2C)c2nc(NC3CCN(C)CC3)[nH]c2c1` [Example Compound 232, 4,6-bis(3,5-dimethyl-isoxazol-4-yl)-N-(1-methyl-piperidin-4-yl)-1H-benzo[d] imidazol-2-amine], the IC50 in test [1] was ≤ 300 nM; with Human AML MV-4-11 cells, 300 to 3000 nM.

Take `CCNc1nc2c(-c3cccnc3C)cc(-c3c(C)noc3C)cc2[nH]1` [Example Compound 100, 6-(3,5-dimethylisoxazol-4-yl)-N-ethyl-4-(2-methylpyridin-3-yl)-1H-benzo[d]imidazol-2-amine]: the IC50 in test [1] was ≤ 300 nM; in test [2], ≤ 300 nM; in the test with Human AML MV-4-11 cells, 300 to 3000 nM.

For `Cc1ccc(C(N)=O)cc1-c1cc(-c2c(C)noc2C)cc2[nH]c(NC3CCOCC3)nc12` [Example Compound 200, 3-(6-(3,5-dimethyl-isoxazol-4-yl)-2-((tetrahydro-2H-pyran-4-yl)amino)-1H-benzo[d]imidazol-4-yl)-4-methyl benzamide], the IC50 (in test [1]; in test [2]; in the test with Human AML MV-4-11 cells) was ≤ 300 nM throughout.

For `Cc1noc(C)c1CNc1cc(-c2c(C)noc2C)cc2[nH]cnc12` [Example Compound 39, 6-(3,5-dimethyl-isoxazol-4-yl)-N-((3,5-dimethyl-isoxazol-4-yl)methyl)-1H-benzo[d] imidazol-4-amine], the IC50 in test [1] is ≤ 300 nM; in test [2], 300 to 3000 nM; in the test on Human AML MV-4-11 cells, 300 to 3000 nM.

In the case of `Cc1noc(C)c1-c1cc(-c2cnn(C)c2)c2nc[nH]c2c1` [Example Compound 29, 3,5-dimethyl-4-(4-(1-methyl-1H-pyrazol-4-yl)-1H-benzo[d]imidazol-6-yl)isoxazole], the results for the IC50 (in test [1]; in test [2]; in the test on Human AML MV-4-11 cells) were ≤ 300 nM, 300 to 3000 nM and 3000 to 30000 nM, respectively.

Consider `Cc1ccc(C(N)=O)cc1-c1cc(-c2c(C)noc2C)cc2[nH]c(N3CCOCC3)nc12` [Example Compound 197, 3-(6-(3,5-dimethyl-isoxazol-4-yl)-2-morpholino-1H-benzo[d]imidazol-4-yl)-4-methyl benzamide], for which the IC50 in test [1] was ≤ 300 nM; in test [2], 300 to 3000 nM; in the test with Human AML MV-4-11 cells, 300 to 3000 nM.

`Cc1nc2c(-c3ccc4c(c3)OCO4)cc(-c3c(C)noc3C)cc2[nH]1` [Example Compound 103, 4-(4-(benzo[d] [1,3]dioxol-5-yl)-2-methyl-1H-benzo[d]imidazol-6-yl)-3,5-dimethyl isoxazole]: the results for the IC50 (in test [1]; in test [2]; in the test with Human AML MV-4-11 cells) were ≤ 300 nM, 300 to 3000 nM and 300 to 3000 nM, respectively.

Turning to `Cc1nc2c(-c3cccc(C(N)=O)c3C)cc(-c3c(C)noc3C)cc2[nH]1` [Example Compound 126, 3-(6-(3,5-dimethylisoxazol-4-yl)-2-methyl-1H-benzo[d]imidazol-4-yl)-2-methylbenzamide], the results for the IC50 (in test [1]; in test [2]; in the test with Human AML MV-4-11 cells) were ≤ 300 nM, ≤ 300 nM and 300 to 3000 nM, respectively.

In the case of `CSc1nc2c(-c3c(C)nn(C)c3C)cc(-c3c(C)noc3C)cc2n1C` [Example Compound 188, 3,5-dimethyl-4-(1-methyl-2-(methylthio)-4-(1,3,5-trimethyl-1H-pyrazol-4-yl)-1H-benzo[d]imidazol-6-yl)isoxazole], the IC50 (in test [1]; in test [2]; in the test on Human AML MV-4-11 cells) was 300 to 3000 nM in each case.

For the compound `Cc1noc(C)c1-c1cc(-c2c(C)nn(C)c2C)c2nc(NC3CCOCC3)[nH]c2c1` [Example Compound 190, 6-(3,5-dimethyl-isoxazol-4-yl)-N-(tetrahydro-2H-pyran-4-yl)-4-(1,3,5-trimethyl-1H-pyrazol-4-yl)-1H-benzo[d] imidazol-2-amine], the IC50 in test [1] is ≤ 300 nM; in test [2], 300 to 3000 nM; in the test on Human AML MV-4-11 cells it was ≤ 300 nM.

Consider `Cc1noc(C)c1-c1cc(-c2c(C)noc2C)c2nn[nH]c2c1` [Example Compound 95, 4,4′-(1H-benzo[d][1,2,3]triazole-4,6-diyl)bis(3,5-dimethylisoxazole)], for which the IC50 in test [1] lay in the range of 300 to 3000 nM. Moreover, the “Cell Proliferation activity” value in the test on Human AML MV-4-11 cells is reported as “Not active”.

Turning to `Cc1noc(C)c1-c1cc(NCc2ccccn2)c2nc[nH]c2c1` [Example Compound 47, 6-(3,5-dimethyl-isoxazol-4-yl)-N-(pyridin-2-ylmethyl)-1H-benzo[d] imidazol-4-amine], the IC50 was ≤ 300 nM in test [1], 300 to 3000 nM in test [2] and 300 to 3000 nM with Human AML MV-4-11 cells.

For `Cc1nc2c(-c3ccccc3C#N)cc(-c3c(C)noc3C)cc2[nH]1` [Example Compound 71, 2-(6-(3,5-dimethyl-isoxazol-4-yl)-2-methyl-1H-benzo[d]imidazol-4-yl)benzonitrile], in test [1], the IC50 was 3000 to 30000 nM.

As to `Cc1noc(C)c1-c1cc(-c2c(C)noc2C)c2nc(NCc3ccccc3)[nH]c2c1` [Example Compound 31, N-benzyl-4,6-bis(3,5-dimethylisoxazol-4-yl)-1H-benzo[d] imidazol-2-amine], the IC50 in test [1] was ≤ 300 nM.

In the case of `Cc1ccncc1-c1cc(-c2c(C)noc2C)cc2[nH]c(N3CCN(C)CC3)nc12` [Example Compound 199, 3,5-dimethyl-4-(2-(4-methylpiperazin-1-yl)-4-(4-methylpyridin-3-yl)-1H-benzo[d]imidazol-6-yl)isoxazole], the IC50 in test [1] fell in the range of 300 to 3000 nM.

Turning to `Cc1nc2cc(-c3c(C)noc3C)cc(-c3c(C)noc3C)c2o1` [Example Compound 101, 5,7-bis(3,5-dimethylisoxazol-4-yl)-2-methylbenzo[d]oxazole], the IC50 in test [1] was ≤ 300 nM.

For the compound `Cc1noc(C)c1-c1cc(-c2ccc[nH]c2=O)c2nc[nH]c2c1` [Example Compound 56, 3-(6-(3,5-dimethyl-isoxazol-4-yl)-1H-benzo[d]imidazol-4-yl)pyridin-2(1H)-one], the IC50 in test [1] was 300 to 3000 nM. Besides, the “Cell Proliferation activity” value in the test on Human AML MV-4-11 cells is “Not active”.

Take `Cc1noc(C)c1-c1cc(-c2c(C)nn(C)c2C)cc2[nH]cnc12` [Example Compound 14, 3,5-dimethyl-4-(6-(1,3,5-trimethyl-1H-pyrazol-4-yl)-1H-benzo[d]imidazol-4-yl)isoxazole]: the IC50 in test [1] fell in the range of 3000 to 30000 nM.
